From patent US20230183193A1, “4-DIFLUOROMETHYL BENZOYL AMIDES WITH HERBICIDAL ACTION” (BAYER CROPSCIENCE AKTIENGESELLSCHAFT, priority 2017, published 2023)

What was measured:
Assay type in all cases: in vivo
[1] = system: Abutilon theophrasti; assay: Pre-emergence herbicidal action, ABUTH; conditions: dosage 320 g/ha, scored visually after 3 weeks vs untreated controls
Summary of the method: (§1)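 Percent herbicidal activity rated by eye 3 weeks after pre-emergence soil-surface application, compared with untreated pots. Seeds sat under sandy loam; sprays carried 0.2% wetting agent.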

[2] = system: Alopecurus myosuroides; assay: Pre-emergence herbicidal action, ALOMY; conditions: dosage 320 g/ha, scored visually after 3 weeks vs untreated controls
Summary of the method: as §1

[3] = system: Amaranthus retroflexus; assay: Pre-emergence herbicidal action, AMARE; conditions: dosage 320 g/ha, scored visually after 3 weeks vs untreated controls
Summary of the method: as §1

[4] = system: Avena fatua; assay: Pre-emergence herbicidal action, AVEFA; conditions: dosage 320 g/ha, scored visually after 3 weeks vs untreated controls
Summary of the method: as §1

[5] = system: Cyperus serotinus; assay: Pre-emergence herbicidal action, CYPES; conditions: dosage 320 g/ha, scored visually after 3 weeks vs untreated controls
Summary of the method: as §1

[6] = system: Matricaria inodora; assay: Pre-emergence herbicidal action, MATIN; conditions: dosage 320 g/ha, scored visually after 3 weeks vs untreated controls
Summary of the method: as §1

[7] = system: Setaria viridis; assay: Pre-emergence herbicidal action, SETVI; conditions: dosage 320 g/ha, scored visually after 3 weeks vs untreated controls
Summary of the method: as §1

[8] = system: Stellaria media; assay: Pre-emergence herbicidal action, STEME; conditions: dosage 320 g/ha, scored visually after 3 weeks vs untreated controls
Summary of the method: as §1

[9] = system: Viola tricolor; assay: Pre-emergence herbicidal action, VIOTR; conditions: dosage 320 g/ha, scored visually after 3 weeks vs untreated controls
Summary of the method: as §1

[10] = system: Abutilon theophrasti; assay: Post-emergence herbicidal action, ABUTH; conditions: 80 g/ha, Table D
Summary of the method: (§2)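 Greenhouse-grown plants were sprayed at the one-leaf stage, 2–3 weeks after sowing. Damage was scored visually after about 3 weeks against untreated controls, as % action (100% = dead, 0% = like control).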

[11] = system: Alopecurus myosuroides; assay: Post-emergence herbicidal action, ALOMY; conditions: 80 g/ha, Table C
Summary of the method: as §2

[12] = system: Amaranthus retroflexus; assay: Post-emergence herbicidal action, AMARE; conditions: 80 g/ha, Table D
Summary of the method: as §2

[13] = system: Avena fatua; assay: Post-emergence herbicidal action, AVEFA; conditions: 80 g/ha, Table C
Summary of the method: as §2

[14] = system: Pharbitis purpureum; assay: Post-emergence herbicidal action, PHBPU; conditions: 80 g/ha, Table D
Summary of the method: as §2

[15] = system: Setaria viridis; assay: Post-emergence herbicidal action, SETVI; conditions: 80 g/ha, Table C
Summary of the method: as §2

[16] = system: Stellaria media; assay: Post-emergence herbicidal action, STEME; conditions: 80 g/ha, Table D
Summary of the method: as §2

[17] = system: Viola tricolor; assay: Post-emergence herbicidal action, VIOTR; conditions: 80 g/ha, Table D
Summary of the method: as §2

[18] = system: ECHCG; assay: Post-emergence herbicidal action, ECHCG; conditions: 80 g/ha, Table C
Summary of the method: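 Weed and crop plants grown in sandy loam in the greenhouse, treated at the one-leaf stage 2–3 weeks after sowing. Damage scored visually after about 3 weeks vs untreated controls (0% = control, 100% = dead).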

Row | Structure (SMILES) | herbicidal activity ABUTH [1] [%] | herbicidal activity ALOMY [2] [%] | herbicidal activity AMARE [3] [%] | herbicidal activity AVEFA [4] [%] | herbicidal activity CYPES [5] [%] | herbicidal activity MATIN [6] [%] | herbicidal activity SETVI [7] [%] | Herbicidal activity STEME [8] [%] | herbicidal activity VIOTR [9] [%] | herbicidal activity ABUTH [10] [%] | herbicidal activity ALOMY [11] [%] | herbicidal activity AMARE [12] [%] | herbicidal activity AVEFA [13] [%] | Herbicidal activity PHBPU [14] [%] | herbicidal activity SETVI [15] [%] | Herbicidal activity STEME [16] [%] | herbicidal activity VIOTR [17] [%] | Herbicidal activity ECHCG [18] [%]
1 | CCc1c(C(=O)Nc2nnnn2CC)ccc(C(F)F)c1SC [Example 2-13] | 100 | 100 | 100 | 100 | 100 | 100 | 100 | 100 | 100 | 100 | 80 | 100 | 90 | 100 | 100 | 100 | 100 | 90
2 | CCn1nnnc1NC(=O)c1ccc(C(F)F)c([S+]([O-])CC)c1C1CC1 (stereo not drawn) [Example 2-29] | 100 | 100 | 100 | 100 | 90 | 100 | 100 | 100 | 100 | 100 | 100 | 100 | 90 | 90 | 100 | 100 | 100 | 100
3 | CCSc1c(C(F)F)ccc(C(=O)Nc2nnc(C)o2)c1CC [Example 7-14] | 100 | 100 | 100 | 100 | 100 | 90 | 100 | 100 | 100 | 100 | 90 | 100 | 100 | 90 | 90 | 100 | 100 | 90
4 | CCn1nnnc1NC(=O)c1ccc(C(F)F)c(S(=O)(=O)CC)c1C [Example 2-6] | 100 | 100 | 100 | 100 | 100 | 100 | 100 | 100 | 100 | 100 | 80 | 90 | 100 | 100 | 90 | 100 | 100 | 90
5 | CCn1nnnc1NC(=O)c1ccc(C(F)F)c([S+]([O-])CC)c1F (stereo not drawn) [Example 2-41] | 100 | 100 | 100 | 100 | 90 | 100 | 100 | 100 | 100 | 100 | 80 | 90 | 90 | 90 | 100 | 100 | 100 | 100
6 | CCc1c(C(=O)Nc2nnnn2C)ccc(C(F)F)c1SC [Example 1-13] | 100 | 100 | 100 | 100 | 100 | 100 | 100 | 100 | 100 | 100 | 90 | 100 | 100 | 100 | 90 | 100 | 100 | 90
7 | CCc1c(C(=O)Nc2nnnn2C)ccc(C(F)F)c1[S+]([O-])CC (stereo not drawn) [Example 1-17] | 100 | 100 | 100 | 100 | 100 | 100 | 100 | 100 | 100 | 100 | 90 | 100 | 90 | 90 | 90 | 100 | 100 | 90
8 | CCn1nnnc1NC(=O)c1ccc(C(F)F)c(S(C)(=O)=O)c1C [Example 2-3] | 100 | 90 | 100 | 100 | 100 | 100 | 100 | 90 | 100 | 80 | 80 | 80 | 90 | 100 | 100 | 100 | 100 | 90
